Earlier results in paper PMC7904743, “WIDOCK: a reactive docking protocol for virtual screening of covalent inhibitors” (Journal of Computer-Aided Molecular Design, 2021).
Where two headings read alike, the source gives them in different places.

Legend:
[1] = system: NUDT7; details: protein labeling at 200 μM; experimental actives if % labeling higher than 50%; cited from earlier work
[2] = system: OTUB2; details: experimental actives if % labeling higher than 50%; cited from earlier work
[3] = thiol reactivity, cited from earlier work
[4] = natural log of average rate constant k
[5] = natural logarithm of average rate constant

SMILES	NUDT7 % labeling [1]	OTUB2 % labeling [2]	ln(avg k) [3, 4]	ln(avg k) [3, 5]
Cc1ccc([N+](=O)[O-])c(NC(=O)CCl)c1C [PCM-0102511, Cc1ccc([N+](=O)[O-])c(NC(=O)CCl)c1C]	15%	7%	-16.700	-16.700
O=C(CCl)N1CCCC1c1ccc2c(c1)OCCCO2 (stereo not shown) [PCM-0102512, O=C(CCl)N1CCCC1c1ccc2c(c1)OCCCO2]	88%	0%	-15.497	-15.497
O=C(CCl)N1CCCCC1 [PCM-0102514, O=C(CCl)N1CCCCC1]	0%	0%	-16.289	-16.289
CC(C)N(CC(F)(F)F)C(=O)CCl [PCM-0102516, CC(C)N(CC(F)(F)F)C(=O)CCl]	0%	0%	-17.383	-17.383
CNC(=O)C1CCCN1C(=O)CCl (stereo not shown) [PCM-0102518, CNC(=O)C1CCCN1C(=O)CCl]	0%	0%	-16.106	-16.106
CC(C)c1ccc(NC(=O)CCl)cc1 [PCM-0102532, CC(C)c1ccc(NC(=O)CCl)cc1]	18%	33%	-15.987	-15.987
CNC(=O)NC(=O)CCl [PCM-0102534, CNC(=O)NC(=O)CCl]	0%	0%	-16.522	-16.522
CC(=O)N1CCN(C(=O)CCl)CC1 [PCM-0102535, CC(=O)N1CCN(C(=O)CCl)CC1]	6%	0%	-15.085	-15.085
CC(C)(C)c1cc(NC(=O)CCl)n(-c2ccccc2)n1 [PCM-0102536, CC(C)(C)c1cc(NC(=O)CCl)n(-c2ccccc2)n1]	0%	14%	-15.955	-15.955
O=C(CCl)NCc1ccccc1 [PCM-0102538, O=C(CCl)NCc1ccccc1]	0%	28%	-16.796	-16.796
Cc1ccc(N(C(=O)CCl)C2C=CS(=O)(=O)C2)cc1 (stereo not shown) [PCM-0102539, Cc1ccc(N(C(=O)CCl)C2C=CS(=O)(=O)C2)cc1]	33%	16%	-15.258	-15.258
O=C(CCl)Nc1cc([N+](=O)[O-])ccc1F [PCM-0102544, O=C(CCl)Nc1cc([N+](=O)[O-])ccc1F]	0%	31%	-15.793	-15.793
COC(=O)c1cc(NC(=O)CCl)cn1C [PCM-0102545, COC(=O)c1cc(NC(=O)CCl)cn1C]	0%	33%	-15.579	-15.579
CC1(C)C(=O)Nc2ccccc2N1C(=O)CCl [PCM-0102546, CC1(C)C(=O)Nc2ccccc2N1C(=O)CCl]	18%	32%	-15.068	-15.068
O=C(CCl)N=c1sccn1Cc1ccccc1Cl [PCM-0102550, O=C(CCl)N=c1sccn1Cc1ccccc1Cl]	11%	0%	-15.426	-15.426
Cc1ccc(CN(C)C(=O)CCl)c(C)c1 [PCM-0102552, Cc1ccc(CN(C)C(=O)CCl)c(C)c1]	19%	0%	-16.104	-16.104
CC(C)(O)CNC(=O)CCl [PCM-0102554, CC(C)(O)CNC(=O)CCl]	0%	0%	-16.972	-16.972
CC(c1ccc(Cl)cc1)N(C)C(=O)CCl (stereo not shown) [PCM-0102556, CC(c1ccc(Cl)cc1)N(C)C(=O)CCl]	39%	0%	-15.842	-15.842
COc1ccc(C2CCCCCN2C(=O)CCl)cc1 (stereo not shown) [PCM-0102558, COc1ccc(C2CCCCCN2C(=O)CCl)cc1]	100%	0%	-16.020	-16.020
CC(NC(=O)CCl)C1CC2CCC1C2 (stereo not shown) [PCM-0102572, CC(NC(=O)CCl)C1CC2CCC1C2]	0%	0%	-17.138	-17.138
O=C(NC1CCN(C(=O)CCl)CC1)c1ccccc1 [PCM-0102575, O=C(NC1CCN(C(=O)CCl)CC1)c1ccccc1]	9%	9%	-15.398	-15.398
Cc1ccc(NC(=O)CCl)cc1I [PCM-0102577, Cc1ccc(NC(=O)CCl)cc1I]	34%	80%	-15.945	-15.945
